# Data reported in US5723719A, “Transgenic mouse as model for diseases involving dopaminergic dysfunction” (Health Research Inc., priority 1995, dated 1998).
# Read-outs that look alike come from different tables or passages of the source.
# What was measured:
# dopamine D2 receptor = target: T1, dopamine D2 receptor (Mus musculus, UniProt P61168); assay: Radioligand binding assay of dopamine D2 receptor binding sites in striatum; conditions: mean ± s.e.m., read-out: KD (dissociation constant between ligand and receptor)
# T1 construct: from tissue; host or cells: striatum of homozygous transgenic (TgX15, chakragati) mice and normal heterozygous litter-mates
# Procedure: Radioligand binding assays were performed to analyze the density of dopamine D2 receptor binding sites in the striatum of mice of the present invention and normal heterozygous mice. […] The density of dopamine D2 binding sites are assayed by the ability of the striata to maximally bind ^[MUT]-methylspiperone (Bmax). Dissociation constants (KD) between the ligand and receptor were also measured.
# 6-OHDA-lesioned rodents = conditions: cited from earlier work
# chakragati mice = assay: Effect of apomorphine treatment on chakragati mice; type: in vivo, mouse; conditions: chakragati mice versus normal control mice
# [1] = rats unilaterally depleted of dopamine by 6-hydroxydopamine lesions (Ungerstedt 1971)
# T1 sequence (P61168 whole entry): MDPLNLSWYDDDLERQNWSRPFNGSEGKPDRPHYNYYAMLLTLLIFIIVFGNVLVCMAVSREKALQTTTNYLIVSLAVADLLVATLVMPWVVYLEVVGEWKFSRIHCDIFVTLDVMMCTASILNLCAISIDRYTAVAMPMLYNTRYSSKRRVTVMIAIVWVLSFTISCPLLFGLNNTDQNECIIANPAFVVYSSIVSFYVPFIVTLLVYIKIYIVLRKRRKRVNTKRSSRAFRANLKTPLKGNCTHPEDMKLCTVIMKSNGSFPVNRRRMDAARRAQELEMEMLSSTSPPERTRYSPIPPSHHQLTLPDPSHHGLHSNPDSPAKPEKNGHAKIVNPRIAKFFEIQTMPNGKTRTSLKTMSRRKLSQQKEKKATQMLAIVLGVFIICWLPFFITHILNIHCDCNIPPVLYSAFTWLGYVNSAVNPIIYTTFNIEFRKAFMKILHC
Compound,Kd (dopamine D2 receptor; striata of heterozygous litter-mates),Kd (dopamine D2 receptor; striata of homozygous transgenic mice),Circling behavior elicited (6-OHDA-lesioned rodents; [1]),Effect of treatment on chakragati mice compared to normal control mice (circling) (chakragati mice),Circling behavior elicited (6-OHDA-lesioned rodents; 6-OHDA-lesioned rodents)
CN1CN(c2ccccc2)C2(CCN(CCCC(=O)c3ccc(F)cc3)CC2)C1=O [^3 H-N-methylspiperone],73 ± 8 pM,81 ± 13 pM,–,–,–
CC(N)Cc1ccccc1 (stereo not drawn) [amphetamine],–,–,high rates of circling behavior can be elicited,–,–
CN1CCc2cccc3c2[C@H]1Cc1ccc(O)c(O)c1-3 [apomorphine],–,–,high rates of circling behavior can be elicited,not significantly differ compared to the normal control mice,elicits robust circling behavior
